Values of other authors in patent US20180263245A1, “WATER-BASED DISINFECTANT” (priority 2015, published 2018).

Legend:
[1] = EPA
bacteria = conditions: without the Cu π-complex

Q: For `CCCCCCCCCCCC[N+](C)(C)Cc1ccccc1.[Cl-]` [C12 Quaternary Ammonium Chloride, Dodecyl Dimethyl Benzyl Ammonium Chloride], which genetic toxicity [1] is on record?
A: The genetic toxicity was “does not believe it is a genetic toxicant”.

Q: And the reproductive risks [1]?
A: Its reproductive risks is “does not believe it poses unacceptable reproductive risks”.

Q: What about the tumors [1] of the same compound?
A: Its tumors is “negative for introduction of tumors”.

Q: What about the “bacterial reduction versus FDA minimum performance standards” value (bacteria) of the same compound?
A: Its value is “exceeded the FDA-indicated minimum performance standards”.
